Experimental data reported in US20260166182A1, “CYANINE-BASED FLUOROPHORES” (The General Hospital Corporation, priority 2022, published 2026).
Several values for one entry are separate records, joined by “and”; a condition that tells them apart may be missing. Equal values may be shown once.

Tests used:
[1] = system: triple-negative breast adenocarcinoma (E0771 cell); assay: NIR-II fluorescence imaging of subcutaneous breast tumor-bearing C57BL/6 mice; type: in vivo, mouse; details: larger-sized breast tumors
From the text: General NIR-II fluorescence imaging: A 640×512-pixel InGaAs camera (Ninox640, Raptor Photonics) and macro zoom lens (0-10×; Navitar Zoom 7000 with SWIR coating) along with 900, 1070, 1100, and 1200 nm long-pass (LP) filters from either Thorlab or Edmund optics were used to collect the NIR-II signal. InGaAs camera played a role as an open-air imaging system along with the support of the FLARE system. An 808 nm fiber-coupled diode laser ([…] at the sample) was used as an excitation source. Data acquisition was done using in-house developed software. The mice fur on the region of interest was shaved prior to imaging using a clipper and removed completely using a depilatory cream. 100 μL of SH1 in 5 w/v % BSA saline ([…]) was injected through the tail vein. Mice were imaged with intact skin using InGaAs camera. At least 3 mice were analyzed for each sample. […]
(§1) Statistical analysis: The fluorescence and background intensities of a region of interest over each tissue were quantified using customized imaging software and ImageJ v1.48 (National Institutes of Health, Bethesda, MD). The signal-to-background ratio (SBR) was calculated as SBR=fluorescence/background, where background was the fluorescence intensity of muscle. […] The differences among groups were determined using one-way ANOVA analysis to assess the statistical differences among more than two groups. […]

PDAC (Pan02 cell line) = assay: Tumor targeting in Pan02 inoculated immune-deficient athymic nude mice; type: in vivo, mouse
From the text: General NIR-II fluorescence imaging: A 640×512-pixel InGaAs camera (Ninox640, Raptor Photonics) and macro zoom lens (0-10×; Navitar Zoom 7000 with SWIR coating) along with 900, 1070, 1100, and 1200 nm long-pass (LP) filters from either Thorlab or Edmund optics were used to collect the NIR-II signal. InGaAs camera played a role as an open-air imaging system along with the support of the FLARE system. An 808 nm fiber-coupled diode laser ([…] at the sample) was used as an excitation source. Data acquisition was done using in-house developed software. The mice fur on the region of interest was shaved prior to imaging using a clipper and removed completely using a depilatory cream. 100 μL of SH1 in 5 w/v % BSA saline ([…]) was injected through the tail vein. Mice were imaged with intact skin using InGaAs camera. At least 3 mice were analyzed for each sample.
as §1

LLC tumor = assay: Tumor histopathology with NIR fluorescence microscopy of resected LLC tumors; type: in vivo, mouse; details: histological NIR images
Experimental: Tumor histopathology evaluation: […] After rinsing with PBS, the fixed sections were counterstained with nuclear fast red, dehydrated by ethanol, transferred into xylene, and finally mounted according to the standard protocol. To determine the tissue distribution of the NIR fluorophore, the dissected tissues were embedded in Tissue-Tek optimum cutting temperature compound (Sakura Finetek, Torrance, CA) without a pre-fixation step. The tissue block was frozen at −80° C. Frozen sections were cut at a thickness of 10 or 50 μm by a cryostat (Leica, Germany). Then, the tissue sections were stained with hematoxylin and eosin (H&E). The BioTek Cytation 5 (Winooski, VT) was used for pathological fluorescence imaging and observation.

[2] = Optical properties and NIR-II quantum yield in 5% BSA saline; type: physicochemical
Experimental: Fluorescence Quantum yield measurement and physicochemical properties: The absorption and emission spectra of fluorophores were measured in 5% BSA saline using UV/Vis/NIR spectrometers (USB2000+VIS+NIR+ES and Flame-NIR, Ocean Insight, Dunedin, FL). Fluorescence emission spectra were collected by NIR excitation with an 808-nm laser. To calculate NIR-II fluorescence quantum yield, the following equation was used:
[formula] • where QYsample is the QY of SH1, QYref is the QY of ICG in 30% FBS supplemented with 50 mM HEPES, nsample and nref are the refractive indices of SH1 and ICG solutions which are both water (1.33) in this case. In silico calculations of molecular weight, the distribution coefficient (LogD at pH 7.4), surface molecular charge, polarizability, and 3D molecular surface area were performed using MarvinSketch (ChemAxon, Budapest, Hungary).

## CCCCN1/C(=C/C=C2\CCCC(/C=C/C3=[N+](CCCC)c4ccc(Cl)cc4C3(C)C)=C2Cl)C(C)(C)c2cc(Cl)ccc21 [SH1, 1-butyl-2-((E)-2-((E)-3-(2-((E)-1-butyl-5-chloro-3,3-dimethylindolin-2-ylidene)ethylidene)-2-chlorocyclohex-1-en-1-yl)vinyl)-5-chloro-3,3-dimethyl-3H-indol-1-ium]
[1]
  TBR: 17.6
PDAC (Pan02 cell line)
  tumor-to-muscle signal ratio (TMR): ~3.0 and 3.6
LLC tumor
  fluorescence signal location in resected tumor: strong fluorescence signals in the targeted tumor
[2]; 5% BSA saline
  NIR-II tail emission up to: ~1250 nm
  extinction coefficient: 333,600 M^−1 cm^−1
  fluorescence emission maximum (NIR-I): 820 nm
[2]; 5 w/v % BSA saline
  quantum yield: 11%
[2]; 808 nm excitation, 1,070 nm LP
  brightness in the NIR-II region relative to ICG: 2.2 fold
  brightness in the NIR-II region relative to IR-780: 1.7 fold
[2]; NIR-II region
  fluorescence brightness in the NIR-II region compared with ICG: 225%
